Measured values published in ChEMBL document CHEMBL3885861, “Open TG-GATES”.

Species on record: Rattus norvegicus
Assay: Open TG-GATES - Regimen: Daily Repeat
Format: toxicity, organism-based, Sprague-Dawley
Design: regimen Daily Repeat, gender Male, age 6 weeks
Conditions: in vivo, po, 0 mg/kg, route gavage, dose level Control; for APTT / Bas / Eos / Fbg / Hb / Ht / Lym / MCH / MCHC / MCV / Mono / Neu / PT / Plat / RBC / Ret / WBC: tissue Blood; for KIDNEY_L / KIDNEY_R / KIDNEY_TOTAL: tissue Kidney; for LIVER: tissue Liver; for A/G / ALP / ALT / AST / BUN / CRE / Ca / Cl / DBIL / GLC / IP / K / LDH / Na / PL / RALB / TBIL / TC / TG / TP / gamma-GTP: tissue Plasma

Structure (SMILES): O=c1ccc2ccccc2o1 [COUMARIN]
- TERMINAL_BW (72 h, time 3 day): 197.7 g
- APTT (72 h, time 3 day): 16.2 s
- Bas (72 h, time 3 day): 0%
- Eos (72 h, time 3 day): 1.2%
- Fbg (72 h, time 3 day): 204.2 mg/dL
- Hb (72 h, time 3 day): 13.4 g/dL
- Ht (72 h, time 3 day): 40.7%
- Lym (72 h, time 3 day): 64.8%
- MCH (72 h, time 3 day): 21.6 pg
- MCHC (72 h, time 3 day): 32.8%
- MCV (72 h, time 3 day): 65.9 fL
- Mono (72 h, time 3 day): 9.8%
- Neu (72 h, time 3 day): 24.2%
- PT (72 h, time 3 day): 11.8 s
- Plat (72 h, time 3 day): 97.8 x10_4/uL
- RBC (72 h, time 3 day): 617.8 x10_4/ul
- Ret (72 h, time 3 day): 8%
- WBC (72 h, time 3 day): 95.9 x10_2/uL
- KIDNEY_L (72 h, time 3 day): 0.9 g
- KIDNEY_R (72 h, time 3 day): 0.9 g
- KIDNEY_TOTAL (72 h, time 3 day): 1.9 g
- LIVER (72 h, time 3 day): 9.7 g
- A/G (72 h, time 3 day): 2.1
- ALP (72 h, time 3 day): 849.4 IU/L
- ALT (72 h, time 3 day): 39.8 IU/L
- AST (72 h, time 3 day): 68.6 IU/L
- BUN (72 h, time 3 day): 15.2 mg/dL
- CRE (72 h, time 3 day): 0.5 mg/dL
- Ca (72 h, time 3 day): 10.7 mg/dL
- Cl (72 h, time 3 day): 104.8 meq/L
- DBIL (72 h, time 3 day): 0.036 mg/dL
- GLC (72 h, time 3 day): 204.6 mg/dL
- IP (72 h, time 3 day): 8 mg/dL
- K (72 h, time 3 day): 4.9 meq/L
- LDH (72 h, time 3 day): 87.4 IU/L
- Na (72 h, time 3 day): 138.8 meq/L
- PL (72 h, time 3 day): 134.6 mg/dL
- RALB (72 h, time 3 day): 3.8 g/dL
- TBIL (72 h, time 3 day): 0.3 mg/dL
- TC (72 h, time 3 day): 79.6 mg/dL
- TG (72 h, time 3 day): 58.6 mg/dL
- TP (72 h, time 3 day): 5.6 g/dL
- gamma-GTP (72 h, time 3 day): 1 IU/L
- TERMINAL_BW ([…], time 7 day): 227.5 g
- TERMINAL_BW ([…], time 14 day): 286.1 g
- TERMINAL_BW ([…], time 28 day): 359.5 g
- APTT ([…], time 7 day): 16.5 s
- Bas ([…], time 7 day): 0%
- Eos ([…], time 7 day): 0.6%
- Fbg ([…], time 7 day): 218.4 mg/dL
- Hb ([…], time 7 day): 13.8 g/dL
- Ht ([…], time 7 day): 41.6%
- Lym ([…], time 7 day): 83.4%
- MCH ([…], time 7 day): 21.3 pg
- MCHC ([…], time 7 day): 33.2%
- MCV ([…], time 7 day): 64.1 fL
- Mono ([…], time 7 day): 4%
- Neu ([…], time 7 day): 11.8%
- PT ([…], time 7 day): 12 s
- Plat ([…], time 7 day): 108.5 x10_4/uL
- RBC ([…], time 7 day): 649.8 x10_4/ul
- Ret ([…], time 7 day): 6.1%
- WBC ([…], time 7 day): 145 x10_2/uL
- APTT ([…], time 14 day): 16.7 s
- Bas ([…], time 14 day): 0.2%
- Eos ([…], time 14 day): 0.6%
- Fbg ([…], time 14 day): 230.2 mg/dL
- Hb ([…], time 14 day): 14.2 g/dL
- Ht ([…], time 14 day): 42.9%
- Lym ([…], time 14 day): 81%
- MCH ([…], time 14 day): 20.6 pg
- MCHC ([…], time 14 day): 33.2%
- MCV ([…], time 14 day): 62 fL
- Mono ([…], time 14 day): 7.4%
- Neu ([…], time 14 day): 10.8%
- PT ([…], time 14 day): 11.7 s
- Plat ([…], time 14 day): 117.6 x10_4/uL
- RBC ([…], time 14 day): 692.4 x10_4/ul
- Ret ([…], time 14 day): 4.8%
- WBC ([…], time 14 day): 114.9 x10_2/uL
- APTT ([…], time 28 day): 17.8 s
- Bas ([…], time 28 day): 0.2%
- Eos ([…], time 28 day): 1.2%
- Fbg ([…], time 28 day): 225 mg/dL
- Hb ([…], time 28 day): 15.1 g/dL
- Ht ([…], time 28 day): 45.2%
- Lym ([…], time 28 day): 79.6%
- MCH ([…], time 28 day): 19.6 pg
- MCHC ([…], time 28 day): 33.4%
- MCV ([…], time 28 day): 58.8 fL
- Mono ([…], time 28 day): 5%
- Neu ([…], time 28 day): 13.8%
- PT ([…], time 28 day): 12 s
- Plat ([…], time 28 day): 101 x10_4/uL
- RBC ([…], time 28 day): 769 x10_4/ul
- Ret ([…], time 28 day): 2.8%
- WBC ([…], time 28 day): 128.8 x10_2/uL
- KIDNEY_L ([…], time 7 day): 1 g
- KIDNEY_R ([…], time 7 day): 1 g
- KIDNEY_TOTAL ([…], time 7 day): 2 g
- KIDNEY_L ([…], time 14 day): 1.2 g
- KIDNEY_R ([…], time 14 day): 1.2 g
- KIDNEY_TOTAL ([…], time 14 day): 2.3 g
- KIDNEY_L ([…], time 28 day): 1.4 g
- KIDNEY_R ([…], time 28 day): 1.4 g
- KIDNEY_TOTAL ([…], time 28 day): 2.7 g
- LIVER ([…], time 7 day): 11.4 g
- LIVER ([…], time 14 day): 14 g
- LIVER ([…], time 28 day): 16.1 g
- A/G ([…], time 7 day): 2.2
- ALP ([…], time 7 day): 954.6 IU/L
- ALT ([…], time 7 day): 35.6 IU/L
- AST ([…], time 7 day): 58 IU/L
- BUN ([…], time 7 day): 17.8 mg/dL
- CRE ([…], time 7 day): 0.6 mg/dL
- Ca ([…], time 7 day): 10.6 mg/dL
- Cl ([…], time 7 day): 104.8 meq/L
- DBIL ([…], time 7 day): 0.014 mg/dL
- GLC ([…], time 7 day): 189.8 mg/dL
- IP ([…], time 7 day): 7.5 mg/dL
- K ([…], time 7 day): 4.9 meq/L
- LDH ([…], time 7 day): 79.6 IU/L
- Na ([…], time 7 day): 138.6 meq/L
- PL ([…], time 7 day): 142.6 mg/dL
- RALB ([…], time 7 day): 3.9 g/dL
- TBIL ([…], time 7 day): 0.3 mg/dL
- TC ([…], time 7 day): 70 mg/dL
- TG ([…], time 7 day): 108.8 mg/dL
- TP ([…], time 7 day): 5.7 g/dL
- gamma-GTP ([…], time 7 day): 1.4 IU/L
- A/G ([…], time 14 day): 2
- ALP ([…], time 14 day): 840.4 IU/L
- ALT ([…], time 14 day): 32.4 IU/L
- AST ([…], time 14 day): 59 IU/L
- BUN ([…], time 14 day): 17.2 mg/dL
- CRE ([…], time 14 day): 0.6 mg/dL
- Ca ([…], time 14 day): 10.8 mg/dL
- Cl ([…], time 14 day): 106.2 meq/L
- DBIL ([…], time 14 day): 0.08 mg/dL
- GLC ([…], time 14 day): 192 mg/dL
- IP ([…], time 14 day): 7.5 mg/dL
- K ([…], time 14 day): 4.8 meq/L
- LDH ([…], time 14 day): 84.8 IU/L
- Na ([…], time 14 day): 139.4 meq/L
- PL ([…], time 14 day): 165.8 mg/dL
- RALB ([…], time 14 day): 4 g/dL
- TBIL ([…], time 14 day): 0.3 mg/dL
- TC ([…], time 14 day): 84 mg/dL
- TG ([…], time 14 day): 104 mg/dL
- TP ([…], time 14 day): 6 g/dL
- gamma-GTP ([…], time 14 day): 1.4 IU/L
- A/G ([…], time 28 day): 1.7
- ALP ([…], time 28 day): 705.8 IU/L
- ALT ([…], time 28 day): 31.2 IU/L
- AST ([…], time 28 day): 54.2 IU/L
- BUN ([…], time 28 day): 18.8 mg/dL
- CRE ([…], time 28 day): 0.6 mg/dL
- Ca ([…], time 28 day): 10.7 mg/dL
- Cl ([…], time 28 day): 106 meq/L
- DBIL ([…], time 28 day): 0.012 mg/dL
- GLC ([…], time 28 day): 215 mg/dL
- IP ([…], time 28 day): 6.5 mg/dL
- K ([…], time 28 day): 4.5 meq/L
- LDH ([…], time 28 day): 51 IU/L
- Na ([…], time 28 day): 138.8 meq/L
- PL ([…], time 28 day): 137.4 mg/dL
- RALB ([…], time 28 day): 4 g/dL
- TBIL ([…], time 28 day): 0.3 mg/dL
- TC ([…], time 28 day): 63 mg/dL
- TG ([…], time 28 day): 126 mg/dL
- TP ([…], time 28 day): 6.4 g/dL
- gamma-GTP ([…], time 28 day): 1 IU/L
